According to ChEMBL document CHEMBL1137718, “Topological descriptors in modeling the agonistic activity of human A3 adenosine receptor ligands: the derivatives of 2-chloro-N(6)-substituted-4'-thioadenosine-5'-uronamide” (Eur J Med Chem, 2009):

Molecular target: T1, Adenosine receptor A3 (Homo sapiens, UniProt P0DMS8)
T1 sequence (P0DMS8 whole entry): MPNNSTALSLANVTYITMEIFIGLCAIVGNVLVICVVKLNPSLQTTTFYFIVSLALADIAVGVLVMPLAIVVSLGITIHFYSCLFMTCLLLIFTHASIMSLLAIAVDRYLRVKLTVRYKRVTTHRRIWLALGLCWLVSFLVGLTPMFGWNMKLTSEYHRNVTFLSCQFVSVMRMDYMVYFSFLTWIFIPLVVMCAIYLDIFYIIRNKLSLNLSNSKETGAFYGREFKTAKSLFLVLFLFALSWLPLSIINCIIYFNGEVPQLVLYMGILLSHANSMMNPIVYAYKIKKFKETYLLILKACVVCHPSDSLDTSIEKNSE
Assay: Displacement of [125I][…] from human adenosine A3 receptor expressed in CHO cells
Type: cell-based

SMILES | Ki [nM]
CNc1nc(Cl)nc2c1ncn2[C@@H]1O[C@H](C(=O)N2CCN(c3ccc(F)cc3)CC2)[C@@H](O)[C@H]1O | 2690
CNc1nc(Cl)nc2c1ncn2[C@@H]1O[C@H](C(=O)NCCC(C)C)[C@@H](O)[C@H]1O | 1.62
O=C([C@H]1O[C@@H](n2cnc3c(NC4CC4)nc(Cl)nc32)[C@H](O)[C@@H]1O)N1CCC(Cc2ccccc2)CC1 | 3980
CCNC(=O)[C@H]1O[C@@H](n2cnc3c(NC4CC4)nc(Cl)nc32)[C@H](O)[C@@H]1O | 0.676
CNC(=O)[C@H]1O[C@@H](n2cnc3c(NCc4ccccc4C)nc(Cl)nc32)[C@H](O)[C@@H]1O | 2.19
O=C([C@H]1O[C@@H](n2cnc3c(NCc4cccc(I)c4)nc(Cl)nc32)[C@H](O)[C@@H]1O)N1CCN(c2ccc(F)cc2)CC1 | 1450
CNc1nc(Cl)nc2c1ncn2[C@@H]1O[C@H](C(=O)NC2CC2)[C@@H](O)[C@H]1O | 2.82
O=C(NCc1cccc(C(F)(F)F)c1)[C@H]1O[C@@H](n2cnc3c(NCc4cccc(I)c4)nc(Cl)nc32)[C@H](O)[C@@H]1O | 355
CCNC(=O)[C@H]1O[C@@H](n2cnc3c(NCc4ccccc4C)nc(Cl)nc32)[C@H](O)[C@@H]1O | 2.51
O=C(NCCc1ccccc1)[C@H]1O[C@@H](n2cnc3c(NCc4cccc(I)c4)nc(Cl)nc32)[C@H](O)[C@@H]1O | 437
CNc1nc(Cl)nc2c1ncn2[C@@H]1O[C@H](C(=O)NCCC(c2ccccc2)c2ccccc2)[C@@H](O)[C@H]1O | 417
CNc1nc(Cl)nc2c1ncn2[C@@H]1O[C@H](C(=O)N2CCC(Cc3ccccc3)CC2)[C@@H](O)[C@H]1O | 3470
Cc1ccccc1CNc1nc(Cl)nc2c1ncn2[C@@H]1O[C@H](C(=O)N2CCC(Cc3ccccc3)CC2)[C@@H](O)[C@H]1O | 49000
CNC(=O)[C@H]1S[C@@H](n2cnc3c(NC4CCCC4)nc(Cl)nc32)[C@H](O)[C@@H]1O | 4.27
O=C(NCc1cccc(Cl)c1)[C@H]1O[C@@H](n2cnc3c(NCc4cccc(I)c4)nc(Cl)nc32)[C@H](O)[C@@H]1O | 309
O=C(NC1CC1)[C@H]1S[C@@H](n2cnc3c(NCc4cccc(I)c4)nc(Cl)nc32)[C@H](O)[C@@H]1O | 2.95
O=C(NC1CCC1)[C@H]1S[C@@H](n2cnc3c(NCc4cccc(I)c4)nc(Cl)nc32)[C@H](O)[C@@H]1O | 18.2
Cc1ccccc1CNc1nc(Cl)nc2c1ncn2[C@@H]1O[C@H](C(=O)N(C)C)[C@@H](O)[C@H]1O | 631
O=C([C@H]1S[C@@H](n2cnc3c(NCc4cccc(I)c4)nc(Cl)nc32)[C@H](O)[C@@H]1O)N1CCC(Cc2ccccc2)CC1 | 871
CNC(=O)[C@H]1O[C@@H](n2cnc3c(NC4CC4)nc(Cl)nc32)[C@H](O)[C@@H]1O | 2.24
CNC(=O)[C@H]1O[C@@H](n2cnc3c(N)nc(Cl)nc32)[C@H](O)[C@@H]1O | 0.398
O=C(NCCC(c1ccccc1)c1ccccc1)[C@H]1O[C@@H](n2cnc3c(NCc4cccc(I)c4)nc(Cl)nc32)[C@H](O)[C@@H]1O | 347
O=C([C@H]1S[C@@H](n2cnc3c(NCc4cccc(I)c4)nc(Cl)nc32)[C@H](O)[C@@H]1O)N1CCOCC1 | 513
CNc1nc(Cl)nc2c1ncn2[C@@H]1O[C@H](C(=O)N(C)C)[C@@H](O)[C@H]1O | 1510

More lines, in order of falling Ki, values ahead:

Ki [nM] | SMILES
7590 | Cc1ccccc1CNc1nc(Cl)nc2c1ncn2[C@@H]1O[C@H](C(=O)N2CCOCC2)[C@@H](O)[C@H]1O
4470 | O=C([C@H]1O[C@@H](n2cnc3c(NC4CC4)nc(Cl)nc32)[C@H](O)[C@@H]1O)N1CCOCC1
3890 | CNc1nc(Cl)nc2c1ncn2[C@@H]1O[C@H](C(=O)N2CCOCC2)[C@@H](O)[C@H]1O
85.1 | CNc1nc(Cl)nc2c1ncn2[C@@H]1O[C@H](C(=O)NCCc2cccc(F)c2)[C@@H](O)[C@H]1O
41.7 | CC(C)CCNC(=O)[C@H]1O[C@@H](n2cnc3c(NCc4cccc(I)c4)nc(Cl)nc32)[C@H](O)[C@@H]1O
29.5 | Cc1ccccc1CNc1nc(Cl)nc2c1ncn2[C@@H]1O[C@H](C(=O)NCC2CC2)[C@@H](O)[C@H]1O
27.5 | Cc1ccccc1CNc1nc(Cl)nc2c1ncn2[C@@H]1O[C@H](C(=O)NC2CC2)[C@@H](O)[C@H]1O
17.4 | CNc1nc(Cl)nc2c1ncn2[C@@H]1O[C@H](C(=O)NCc2cccc(F)c2)[C@@H](O)[C@H]1O
5.62 | O=C(NC1CC1)[C@H]1S[C@@H](n2cnc3c(NC4CC4)nc(Cl)nc32)[C@H](O)[C@@H]1O
3.63 | O=C(NCC1CC1)[C@H]1S[C@@H](n2cnc3c(NCc4cccc(I)c4)nc(Cl)nc32)[C@H](O)[C@@H]1O
1.1 | CNc1nc(Cl)nc2c1ncn2[C@@H]1O[C@H](C(=O)NCC2CC2)[C@@H](O)[C@H]1O
0.891 | CCNC(=O)[C@H]1S[C@@H](n2cnc3c(NCc4cccc(I)c4)nc(Cl)nc32)[C@H](O)[C@@H]1O
